From US5026729A, “Lipoxygenase inhibiting compounds” (Abbott Laboratories, priority 1989, dated 1991)

Legend:
5-Lipoxygenase = molecular target: T1, 5-Lipoxygenase (Homo sapiens, UniProt P09917); assay: 5-Lipoxygenase inhibitory activity in vitro; assay type: biochemical
T1 sequence (P09917 1-674): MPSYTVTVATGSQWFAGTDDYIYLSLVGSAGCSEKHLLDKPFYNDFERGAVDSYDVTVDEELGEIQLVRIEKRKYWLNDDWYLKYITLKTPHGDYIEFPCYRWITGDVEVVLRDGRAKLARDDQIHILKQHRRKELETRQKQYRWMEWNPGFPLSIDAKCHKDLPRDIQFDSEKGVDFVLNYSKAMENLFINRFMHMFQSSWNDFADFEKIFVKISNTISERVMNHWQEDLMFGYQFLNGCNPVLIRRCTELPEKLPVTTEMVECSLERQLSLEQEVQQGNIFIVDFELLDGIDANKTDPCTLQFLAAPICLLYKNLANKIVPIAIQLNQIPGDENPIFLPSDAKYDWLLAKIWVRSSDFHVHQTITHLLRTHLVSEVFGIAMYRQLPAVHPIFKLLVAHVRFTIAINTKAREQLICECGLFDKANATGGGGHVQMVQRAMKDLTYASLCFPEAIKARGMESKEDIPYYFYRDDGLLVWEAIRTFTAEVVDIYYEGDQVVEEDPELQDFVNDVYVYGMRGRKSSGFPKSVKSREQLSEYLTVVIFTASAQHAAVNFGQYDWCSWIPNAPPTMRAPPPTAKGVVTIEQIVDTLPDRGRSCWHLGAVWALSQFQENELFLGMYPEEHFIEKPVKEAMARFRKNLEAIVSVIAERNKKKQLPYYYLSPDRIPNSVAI

[1] = Determination of plasma half-life after intravenous injection in rats; assay type: in vivo; details: 1.7 mL/kg solution via jugular cannula, HPLC, elimination phase; for half-life: rat, plasma, read-out: Plasma Halflife (converted)
Description: Rats were injected intravenously with a 1.7 mL/kg solution of test compound through a jugular cannula. Multiple blood samples were collected from the lateral tail vein using heparinized capillary tubes. Plasma was obtained by centrifugation and precipitation of proteins by 2 volumes of methanol was followed by centrifugation at 12000×G for 10 min. The supernatant was analyzed by HPLC using a C18 Adsorbosphere 7μm column and eluted with a mobile phase of varying amounts of acetonitrile and aqueous 8mM triethylamine acetate and 10mM acetohydroxamic acid with a flow rate of about 1mL/min and detection by UV spectroscopy. The quantitation of compounds was calculated using external standards. The halflife of a test compound was determined from the elimination phase of a graph of the log of the plasma concentration versus time.

| Structure (SMILES) | IC50 (5-Lipoxygenase) | half-life [1] | inhibition at 0.78 µM (5-Lipoxygenase; 0.78 μM, read-out: 5-Lipoxygenase Inhibitory Activity (percent inhibition)) | Plasma Halflife [1] | inhibition at 0.39 µM (5-Lipoxygenase; 0.39 μM, read-out: 5-Lipoxygenase Inhibitory Activity (percent inhibition)) |
| --- | --- | --- | --- | --- | --- |
| CC(=O)N(O)C(C)c1ccc(OC(C)c2ccc(F)cc2)cc1 (stereo not drawn) [Example 31, N-Hydroxy-N-(1-(4-(1-(4-fluorophenyl)ethoxy)-phenyl)ethyl]acetamide] | 500 nM | 12.4 h |  |  |  |
| CC(=O)N(O)C(C)c1ccc(OCc2ccc(Cl)cc2)cc1 (stereo not drawn) [E] |  | 1.4 h | 91% |  |  |
| CC(=O)N(O)C(C)c1ccc(OCc2ccc(F)cc2)cc1 (stereo not drawn) [C] | 500 nM | 5.6 h |  |  |  |
| CC(c1ccc(OCc2ccc(F)cc2)cc1)N(O)C(N)=O (stereo not drawn) [D] | 400 nM |  |  | biphasic |  |
| CC(c1ccc(OCc2ccc(Cl)cc2)cc1)N(O)C(N)=O (stereo not drawn) [F] |  | 4.6 h |  |  | 72% |
| CC(=O)N(O)C(C)c1ccc(OC(C)c2ccc(Cl)cc2)cc1 (stereo not drawn) [Example 33] | 600 nM | 5.7 h |  |  |  |

More lines, in order of falling IC50 (5-Lipoxygenase), values ahead:

| IC50 (5-Lipoxygenase) | half-life [1] | inhibition at 0.78 µM (5-Lipoxygenase; 0.78 μM, read-out: 5-Lipoxygenase Inhibitory Activity (percent inhibition)) | Plasma Halflife [1] | inhibition at 0.39 µM (5-Lipoxygenase; 0.39 μM, read-out: 5-Lipoxygenase Inhibitory Activity (percent inhibition)) | Structure (SMILES) |
| --- | --- | --- | --- | --- | --- |
| 400 nM | 0.6 h |  |  |  | Cc1cc(OCc2ccccc2)ccc1C(C)N(O)C(N)=O (stereo not drawn) [B] |
| 300 nM | 7.2 h |  |  |  | CC(Oc1ccc(C(C)N(O)C(N)=O)cc1)c1ccc(F)cc1 (stereo not drawn) [Example 32] |
| 200 nM | 5.3 h |  |  |  | Cc1cc(C(C)N(O)C(N)=O)ccc1OC(C)c1ccccc1 (stereo not drawn) [Example 3, N-hydroxy-N-[1-(4-(1-phenylethoxy)-3-methylphenyl)ethyl]urea] |
| 200 nM | 7.8 h |  |  |  | CC(Oc1ccc(C(C)N(O)C(N)=O)cc1)c1ccc(Cl)cc1 (stereo not drawn) [Example 34, N-hydroxy-N-[1-(4-(1-(4-chlorophenyl)ethoxy)-phenyl)ethyl]urea] |
| 100 nM | 2.7 h |  |  |  | Cc1cc(C(C)N(O)C(N)=O)ccc1OCc1ccccc1 (stereo not drawn) [A] |
| 50 nM | 1.2 h |  |  |  | Cc1cc(OC(C)c2ccccc2)ccc1C(C)N(O)C(N)=O (stereo not drawn) [Example 4, N-hydroxy-N-[1-(4-(1-phenylethoxy)-2-methylphenyl)ethyl]urea] |
